Measured values published in patent US6828317B2, “Antimicrobial thiadiazinone derivatives and their application for treatment of bacterial infections” (Pharmacia & Upjohn Company, priority 2002, dated 2004).
Converted amounts (≈) assume the structure as drawn.

Experiments:
S. pneumoniae UC9912 = test: MIC by agar dilution, S. pneumoniae UC9912; format: cell-based; conditions: Streptococcus pneumoniae, Mueller Hinton agar, overnight at 35° C.
Description: (§1) The in vitro activity of compounds of the subject invention may be assessed by standard testing procedures such as the determination of minimum inhibitory concentration (MIC) by agar dilution as described in “Approved Standard. Methods for Dilution Antimicrobial Susceptibility Tests for Bacteria that Grow Aerobically,” 3rd ed., published 1993 by the National Committee for Clinical Laboratory standards, Villanova, Pa., USA. The in vitro MICs of test compounds may be determined by a standard agar dilution method. A stock drug solution of each analog is prepared in a preferred solvent, usually DMSO:H2O (1:3). Serial 2-fold dilutions of each sample are made using 1.0 ml aliquots of sterile distilled water. To each 1.0 ml aliquot of drug is added 9 ml of molten Mueller Hinton agar medium. The drug-supplemented agar is mixed, poured into 15×100 mm petri dishes, and allowed to solidify and dry prior to inoculation. Vials of each of the test microorganisms are maintained frozen in the vapor phase of a liquid nitrogen freezer. Test cultures are grown overnight at 35° C. on the medium appropriate for the microorganism. Colonies are harvested with a sterile swab, and cell suspensions are prepared in Trypticase Soy broth (TSB) to equal the turbidity of a 0.5 McFarland standard. A 1:20 dilution of each suspension is made in TSB. The plates containing the drug supplemented agar are inoculated with a 0.001 ml drop of the cell suspension using a Steers replicator, yielding approximately 10^4 to 10^5 cells per spot. The plates are incubated overnight at 35° C. Following incubation the Minimum Inhibitory Concentration (MIC μg/ml), the lowest concentration of drug that inhibits visible growth of the microorganism, is read and recorded.

S. aureus UC9213 = test: MIC by agar dilution, S. aureus UC9213; format: cell-based; conditions: Staphylococcus aureus, Mueller Hinton agar, overnight at 35° C.
Description: as §1

H. influenzae 30063 = test: MIC by agar dilution, H. influenzae 30063; format: cell-based; conditions: Haemophilus influenzae, Mueller Hinton agar, overnight at 35° C.
Description: as §1

SMILES	MIC (S. pneumoniae UC9912) [µg/mL]	MIC (S. aureus UC9213) [µg/mL]	MIC (H. influenzae 30063) [µg/mL]	melting point [°C]
CCC(=O)NC[C@H]1CN(c2ccc(C3=NNC(=O)CS3)c(F)c2)C(=O)O1 [Example 15, N-{3-[3-Fluoro-4-(5-oxo-5,6-dihydro-4H-[1,3,4]thiadiazin-2-yl)-phenyl]-2-oxo-oxazolidin-5(S)-ylmethyl}-propionamide]	< 0.06	1 (≈ 2.63 µM)	2 (≈ 5.26 µM)	192 to 193
CC(=S)NC[C@H]1CN(c2ccc(C3=NNC(=S)CS3)c(F)c2)C(=O)O1 [Example 26, N-{3-[3-Fluoro-4-(5-thioxo-5,6-dihydro-4H-[1,3,4]thiadiazin-2-yl)-phenyl]-2-oxo-oxazolidin-5(S)-ylmethyl}-thioacetamide]	< 0.06	0.25 (≈ 0.627 µM)	1 (≈ 2.51 µM)	158 to 161
